Assay results published in patent publication US10189840B2, “Substituted tricyclic heterocyclic compounds” (BRISTOL-MYERS SQUIBB COMPANY, priority 2015, dated 2019).

These compounds were tested against TNFα (Homo sapiens (Human), UniProt P01375) (assay: TNF induced HEK-Blue assay). Conditions: TNFα 0.5 ng/ml; HEK-Blue-CD40L cells, NF-κB-driven secreted alkaline phosphatase reporter; 18 h.
Format: cell-based
Summary of the method: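 Compounds at 0.004–25 μM final were preincubated 30 min with TNFα (0.5 ng/ml final) in DMEM/10% FBS. HEK-Blue-CD40L cells carrying an NF-κB-driven SEAP reporter (20,000/well) were then added for 18 h at 37 °C, 5% CO2, and SEAP was read by QUANTI-Blue at 620 nm. IC50 came from a 4-parameter logistic fit, normalized to unstimulated and stimulated DMSO controls.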

TNFα, sequence (P01375 77-233): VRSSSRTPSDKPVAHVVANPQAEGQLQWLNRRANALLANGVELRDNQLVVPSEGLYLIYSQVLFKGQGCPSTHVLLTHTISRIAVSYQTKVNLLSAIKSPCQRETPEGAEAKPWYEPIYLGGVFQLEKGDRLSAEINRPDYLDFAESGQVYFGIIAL

| Compound | IC50 |
| --- | --- |
| CC(C)(O)c1ccc(-c2ccc3nc4n(c3n2)C(c2ccccc2C2CC2)CC4F)cc1 (stereo not drawn) [Example 21 (e3), 2-(4-(8-(2-cyclopropylphenyl)-6-fluoro-7,8-dihydro-6H-pyrrolo[2′,1′:2,3]imidazo[4,5-b]pyridin-2-yl)phenyl)propan-2-ol] | 1000 to 10000 nM |
| CC(C)(O)c1ccc(-c2ccc3nc4n(c3n2)C(c2ccccc2OC(F)(F)F)CC4F)cc1 (stereo not drawn) [Example 22 (e3), 2-(4-(6-fluoro-8-(2-(trifluoromethoxy)phenyl)-7,8-dihydro-6H-pyrrolo[2′,1′:2,3]imidazo[4,5-b]pyridin-2-yl)phenyl)propan-2-ol] | 1000 to 10000 nM |
| CC(C)(O)c1ccc(-c2ccc3nc4n(c3n2)C(c2c(F)cccc2C(F)(F)F)CC4F)cc1 (stereo not drawn) [Example 23 (e1), 2-(4-(6-fluoro-8-(2-fluoro-6-(trifluoromethyl)phenyl)-7,8-dihydro-6H-pyrrolo[2′,1′:2,3]imidazo[4,5-b]pyridin-2-yl)phenyl)propan-2-ol] | < 1000 nM |
| CC(C)(O)c1ccc(-c2ccc3nc4n(c3n2)C(c2cc(F)ccc2C(F)(F)F)CC4F)cc1 (stereo not drawn) [Example 24 (DM), 2-(4-(6-fluoro-8-(5-fluoro-2-(trifluoromethyl)phenyl)-7,8-dihydro-6H-yrrolo[2′,1′:2,3]imidazo[4,5-b]pyridin-2-yl)phenyl)propan-2-ol] | < 1000 nM |
| CC(C)(O)c1ccc(-c2ccc3nc4n(c3n2)C(c2cc(F)ccc2C(F)(F)F)CC4F)cc1 (stereo not drawn) [Example 24 (e3), 2-(4-(6-fluoro-8-(5-fluoro-2-(trifluoromethyl)phenyl)-7,8-dihydro-6H-yrrolo[2′,1′:2,3]imidazo[4,5-b]pyridin-2-yl)phenyl)propan-2-ol] | 1000 to 10000 nM |
| CC(C)(O)c1ccc(-c2ccc3nc4n(c3n2)C(c2cc(F)ccc2C(F)(F)F)CC4F)cc1 (stereo not drawn) [Example 24 (e4), 2-(4-(6-fluoro-8-(5-fluoro-2-(trifluoromethyl)phenyl)-7,8-dihydro-6H-yrrolo[2′,1′:2,3]imidazo[4,5-b]pyridin-2-yl)phenyl)propan-2-ol] | < 1000 nM |
| COc1ccccc1C1CCc2nc3ccc(-c4ccc(C(C)(C)O)cc4)nc3n21 (stereo not drawn) [Example 31 (e1), 2-(4-(8-(2-methoxyphenyl)-7,8-dihydro-6H-pyrrolo[2′,1′:2,3]imidazo[4,5-b]pyridin-2-yl)phenyl)propan-2-ol] | < 1000 nM |
| Cc1ccc(C)c([C@H]2CCc3nc4ccc(-c5cnc(C(C)(C)O)nc5)nc4n32)c1 [Example 36, (R)-2-(5-(8-(2,5-Dimethylphenyl)-7,8-dihydro-6H-pyrrolo[2′,1′:2,3]imidazo[4,5-b]pyridin-2-yl)pyrimidin-2-yl)propan-2-ol] | < 1000 nM |
| Cc1ccc(C)c([C@H]2CCc3nc4ccc(-c5ccc(C(C)(C)O)cc5)nc4n32)c1 [Example 37, (R)-2-(4-(8-(2,5-dimethylphenyl)-7,8-dihydro-6H-pyrrolo[2′,1′:2,3]imidazo[4,5-b]pyridin-2-yl)phenyl)propan-2-ol] | < 1000 nM |
| Cc1ccc(C)c([C@H]2CCc3nc4ccc(-c5ccc(N6CCN(C)CC6)cc5)nc4n32)c1 [Example 38, (R)-8-(2,5-dimethylphenyl)-2-(4-(4-methylpiperazin-1-yl)phenyl)-7,8-dihydro-6H-pyrrolo[2′,1′:2,3]imidazo[4,5-b]pyridine] | 1000 to 10000 nM |
| COc1ccc(-c2ccc3nc4n(c3n2)[C@@H](c2cc(C)ccc2C)CC4)cn1 [Example 39, (R)-8-(2,5-dimethylphenyl)-2-(6-methoxypyridin-3-yl)-7,8-dihydro-6H-pyrrolo[2′,1′:2,3]imidazo[4,5-b]pyridine] | 1000 to 10000 nM |
| Cc1ccc(C)c([C@H]2CCc3nc4ccc(-c5cnn(C)c5)nc4n32)c1 [Example 40, (R)-8-(2,5-dimethylphenyl)-2-(1-methyl-1H-pyrazol-4-yl)-7,8-dihydro-6H-pyrrolo[2′,1′:2,3]imidazo[4,5-b]pyridine] | 1000 to 10000 nM |
